≈ marks a conversion by molar mass, not a printed value. Read-outs that look alike come from different tables or passages of the source. One block for each compound: values may come before it.
Experiments:
[1] = Solubility evaluation in organic solvents; type: physicochemical; settings: room temperature; for solubility: organic solvent or mixture
Experimental: Solubility of the compound was evaluated. As a result, under room temperature, the compound was dissolved into chloroform at 381 g/L (20.5 wt. %), and into toluene at 137 g/L (13.6 wt. %). The compound is clearly found to show high solubility in any of solvent to allow use in an application process.
Solubility of the compound was evaluated. As a result, under room temperature, the compound was dissolved into chloroform at 43 g/L (2.8 wt. %), and into toluene at 23 g/L (2.6 wt. %). The compound is clearly found to show high solubility in any of solvent to allow use in an application process.

[2] = Evaluation of chemical stability by UV-Vis spectrum; type: physicochemical
Experimental: Then, 0.6951 mg of the compound synthesized in Example 3 was weighed, and dissolved into degassed benzonitrile (25 mL) using a measuring flask in a glove box (solution concentration: 4.92×10^−5 M). A prepared solution thereof was put into a UV cell with a cover, and a UV-Vis spectrum (device used: Jasco V-570 Spectrometer, made by JASCO Corporation) was immediately measured. Subsequently, opening and closing of the cover were repeated several times under atmospheric air to bring the solution into contact with oxygen in air.
Moreover, a film having a thickness of 100 nanometers formed by performing vacuum deposition of the compound synthesized in Example 3 was allowed to stand for one week in atmospheric air. The results obtained by measuring UV-Vis spectra (device used: Jasco V-570 Spectrometer, made by JASCO Corporation) over time during the period are shown in FIG. 6.

[3] = chloroform, read-out: Solubility in chloroform
[4] = toluene, read-out: Solubility in toluene

Compound: CCCCCCc1ccc2cc3c(cc2c1)sc1cc2cc(CCCCCC)ccc2cc13 [Example 7, 3,9-dihexyldinaphtho[2,3-b:2′,3′-d]thiophene]
melting point: 202 to 202.4 °C

Compound: CCCCCCCCc1ccc2cc3c(cc2c1)sc1cc2cc(CCCCCCCC)ccc2cc13 [Example 8, 3,9-dioctyldinaphtho[2,3-b:2′,3′-d]thiophene]
melting point: 193.7 to 194.8 °C

Compound: CCCCCCCCCCc1ccc2cc3sc4cc5ccc(CCCCCCCCCC)cc5cc4c3cc2c1 [Example 2, 2,10-didecyldinaphtho[2,3-b:2′,3′-d]thiophene]
melting point: 122 to 123 °C

Compound: CCCCCCCCCCc1ccc2cc3c(cc2c1)sc1cc2cc(CCCCCCCCCC)ccc2cc13 [Example 6, 3,9-didecyldinaphtho[2,3-b:2′,3′-d]thiophene]
melting point: 182 to 183 °C

Compound: CCCCCCCCCCc1ccc2cc3oc4cc5ccc(CCCCCCCCCC)cc5cc4c3cc2c1 [Example 1, 2,10-didecyldinaphtho[2,3-b:2′,3′-d]furan]
melting point: 175 to 176 °C

Further lines, results first:

melting point: 198.7 to 199.1 °C
Compound: CCCCCCc1ccc2cc3c(cc2c1)oc1cc2cc(CCCCCC)ccc2cc13 [Example 5, 3,9-dihexyldinaphtho[2,3-b:2′,3′-d]furan]

solubility [1, 3]: 43 mg/mL (≈ 102 mM)
solubility [1, 4]: 23 mg/mL (≈ 54.7 mM)
Solubility in chloroform ([1]; chloroform): 2.8 wt. %
Solubility in toluene ([1]; toluene): 2.6 wt. %
Compound: c1ccc(-c2cc3oc4cc(-c5ccccc5)c5ccccc5c4c3c3ccccc23)cc1 [Example 20, 5,9-diphenyldinaphtho[2,1-b:1′,2′-d]furan]

melting point: 282 to 283 °C
Compound: c1ccc2cc3c(cc2c1)sc1cc2ccccc2cc13 [Comparative Example 1, dinaphtho[2,3-b:2′,3′-d]thiophene]

solubility [1, 3]: 381 mg/mL (≈ 773 mM)
solubility [1, 4]: 137 mg/mL (≈ 278 mM)
Solubility in chloroform ([1]; chloroform): 20.5 wt. %
Solubility in toluene ([1]; toluene): 13.6 wt. %
Compound: CCCCCCCCc1cc2oc3cc(CCCCCCCC)c4ccccc4c3c2c2ccccc12 [Example 18, 5,9-dioctyldinaphtho[2,1-b:1′,2′-d]furan]

Change of UV-Vis spectrum of solution ([2]; benzonitrile solution 4.92×10^−5 M, contact with oxygen in air, 3, 24 and 72 hours): no change of the spectrum was observed
Chemical stability (conclusion) ([2]; solution and film in air): chemically stable
Change of UV-Vis spectrum of film ([2]; vacuum-deposited film 100 nanometers, one week in atmospheric air): no change of the spectrum was observed
melting point: 216 to 217 °C
Compound: CCCCCCCCCCc1ccc2cc3c(cc2c1)oc1cc2cc(CCCCCCCCCC)ccc2cc13 [Example 3, 3,9-didecyldinaphtho[2,3-b:2′,3′-d]furan]
